Experimental data taken from ChEMBL document CHEMBL1126710, “A new candidate for an anti-HIV-1 agent: modified cyclodextrin sulfate (mCDS71)” (J Med Chem, 1993).

Tests used:
[1] = Tested for anticoagulation effect by Zuchker's activated partial thromboplastin time (APTT) method; format: functional
MT4 [2] = experiment: Tested against HIV-1 induced cytopathic effect in MT-4 cells on KK-1AIDS (strain clinically isolated from an AIDS patient); format: functional, Homo sapiens
MT4 [3] = experiment: Tested against HIV-1 induced cytopathic effect in MT-4 cells on LAV-1 strain; format: functional, Homo sapiens
MT4 [4] = experiment: Tested for appearance of MT-4 cell toxicity after 5 days of incubation; format: functional; details: Homo sapiens, MT4, 120 h; read-out: TD50 (the source's name)
[5] = (§1) Tested for cytopathic effect caused by KK-1AIDS strain in MT-4 cells in the presence of human serum; format: functional, cell-based; details: MT4, Serum
[6] = (§2) Tested for cytopathic effect caused by LAV-1 strain in MT-4 cells in the presence of human serum; format: functional, cell-based; details: MT4, Serum
MOLT-4 = experiment: Tested for the suppressive effect on giant cell formation in MOLT-4 and MOLT-4/HIV LAV-1 cells (value obtained in the presence of 10% FCS); format: functional, cell-based; details: Homo sapiens
[7] = system: Human immunodeficiency virus 1; experiment: Tested against HIV-1 replication of KK-1AIDS strain in peripheral blood mononuclear cells (value obtained in the presence of 20% FCS); format: functional, organism-based
MT4 [8] = experiment: as §1; format: functional, cell-based
MT4 [9] = experiment: as §2; format: functional, cell-based

O=S(=O)([O-])OCC1O[C@H]2O[C@@H]3C(COS(=O)(=O)[O-])O[C@H](O[C@@H]4C(COS(=O)(=O)[O-])O[C@H](O[C@@H]5C(COS(=O)(=O)[O-])O[C@H](O[C@@H]6C(COS(=O)(=O)[O-])O[C@@H](O[C@@H]7C(COS(=O)(=O)[O-])O[C@H](O[C@@H]8C(COS(=O)(=O)[O-])O[C@H](O[C@H]1C(OS(=O)(=O)[O-])C2O)C(OCc1ccccc1)C8OS(=O)(=O)[O-])C(O)C7OS(=O)(=O)[O-])C(OCc1ccccc1)C6OS(=O)(=O)[O-])C(OS(=O)(=O)[O-])C5OS(=O)(=O)[O-])C(OCc1ccccc1)C4OS(=O)(=O)[O-])C(OS(=O)(=O)[O-])C3OS(=O)(=O)[O-].[Na+].[Na+].[Na+].[Na+].[Na+].[Na+].[Na+].[Na+].[Na+].[Na+].[Na+].[Na+].[Na+].[Na+].[Na+].[Na+] (some centres undefined)
APTT [1]: 4 µg/mL
IC100 (MT4 [2]): 3.9 µg/mL
IC100 (MT4 [3]): 1.95 µg/mL
CC50 (MT4 [4]): > 1000 µg/mL

O=S(=O)([O-])OC[C@@H]1O[C@@H]2O[C@H]3[C@H](OS(=O)(=O)[O-])[C@H](OCc4ccccc4)[C@@H](O[C@H]4[C@H](OS(=O)(=O)[O-])[C@H](OCc5ccccc5)[C@@H](O[C@H]5[C@H](OS(=O)(=O)[O-])[C@H](OCc6ccccc6)[C@@H](O[C@H]6[C@H](OS(=O)(=O)[O-])[C@H](OCc7ccccc7)[C@@H](O[C@H]7[C@H](OS(=O)(=O)[O-])[C@H](OCc8ccccc8)C(O[C@H]8[C@H](OS(=O)(=O)[O-])[C@H](OCc9ccccc9)C(O[C@H]1[C@H](OS(=O)(=O)[O-])[C@@H]2OCc1ccccc1)O[C@H]8COS(=O)(=O)[O-])O[C@H]7COS(=O)(=O)[O-])O[C@H]6COS(=O)(=O)[O-])O[C@H]5COS(=O)(=O)[O-])O[C@H]4COS(=O)(=O)[O-])O[C@H]3COS(=O)(=O)[O-].[Na+].[Na+].[Na+].[Na+].[Na+].[Na+].[Na+].[Na+].[Na+].[Na+].[Na+].[Na+].[Na+].[Na+]
APTT [1]: 14.8 µg/mL
IC50 [5]: 5.8 µg/mL
IC100 (MT4 [2]): 0.98 µg/mL
IC100 (MT4 [3]): 0.98 µg/mL
CC50 (MT4 [4]): 1000 µg/mL
IC50 [6]: 0.87 µg/mL
IC50 (MOLT-4): 0.46 µg/mL
IC50 [7]: 3.6 µg/mL

O=S(=O)([O-])OCC1O[C@H]2O[C@@H]3C(CSCc4ccccc4)O[C@H](O[C@@H]4C(COS(=O)(=O)[O-])O[C@H](O[C@@H]5C(COS(=O)(=O)[O-])O[C@@H](O[C@@H]6C(CSCc7ccccc7)O[C@H](O[C@@H]7C(COS(=O)(=O)[O-])O[C@H](O[C@@H]8C(CSCc9ccccc9)O[C@H](O[C@H]1C(O)C2OS(=O)(=O)[O-])C(OS(=O)(=O)[O-])C8OS(=O)(=O)[O-])C(OS(=O)(=O)[O-])C7OS(=O)(=O)[O-])C(OS(=O)(=O)[O-])C6OS(=O)(=O)[O-])C(O)C5OS(=O)(=O)[O-])C(OS(=O)(=O)[O-])C4OS(=O)(=O)[O-])C(OS(=O)(=O)[O-])C3OS(=O)(=O)[O-].[K+].[K+].[K+].[K+].[K+].[K+].[K+].[K+].[K+].[K+].[K+].[K+].[K+].[K+].[K+].[K+] (some centres undefined)
APTT [1]: 7.1 µg/mL
IC50 (MT4 [8]): 11 µg/mL
IC100 (MT4 [2]): 1.95 µg/mL
IC100 (MT4 [3]): 0.98 µg/mL
CC50 (MT4 [4]): > 1000 µg/mL
IC50 (MT4 [9]): 4.5 µg/mL
IC50 (MOLT-4): 2 µg/mL
IC50 [7]: 6.5 µg/mL

O=S(=O)([O-])OC[C@@H]1O[C@@H]2O[C@H]3[C@H](OS(=O)(=O)[O-])[C@H](O)[C@@H](O[C@H]4[C@H](OS(=O)(=O)[O-])[C@H](O)[C@@H](O[C@H]5[C@H](OS(=O)(=O)[O-])[C@H](O)[C@@H](O[C@H]6[C@H](OS(=O)(=O)[O-])[C@H](O)[C@@H](O[C@H]7[C@H](OS(=O)(=O)[O-])[C@H](O)C(O[C@H]8[C@H](OS(=O)(=O)[O-])[C@H](O)C(O[C@H]1[C@H](OS(=O)(=O)[O-])[C@@H]2O)O[C@H]8COS(=O)(=O)[O-])O[C@H]7COS(=O)(=O)[O-])O[C@H]6COS(=O)(=O)[O-])O[C@H]5COS(=O)(=O)[O-])O[C@H]4COS(=O)(=O)[O-])O[C@H]3COS(=O)(=O)[O-].[K+].[K+].[K+].[K+].[K+].[K+].[K+].[K+].[K+].[K+].[K+].[K+].[K+].[K+]
APTT [1]: 2.8 µg/mL
IC100 (MT4 [2]): 125 µg/mL
IC100 (MT4 [3]): 31.26 µg/mL
CC50 (MT4 [4]): > 1000 µg/mL
